Test results as given in patent publication US20030054988A1, “Modified plasminogen related peptide fragments and their use as angiogenesis inhibitors” (priority 2000, published 2003).

What was measured:
HUVEC = HUVEC proliferation in response to mitogenic stimulation; assay type: cell-based, human
From the text: The anti-proliferative effects of the modified peptide fragments on endothelial cells in response to different mitogenic stimulation were also examined. The assay used in these experiments is described by Cao et al. in J. Biol. Chem. 1997 272(36):22924-22928. The modified peptide fragment BMS-291102 (SEQ ID NO: 2) was an extremely potent inhibitor of bFGF-elicited HUVEC proliferation.

[1] = test system: endothelial cells in the matrigel plug; experiment: In vivo Matrigel plug angiogenesis model; details: 100 μM/plug, peptide embedded in matrigel, bFGF stimulation, nude mice
Experimental: Modified peptide fragments of the present invention were also evaluated in the matrigel plug model to determine their in vivo anti-angiogenic activities. To minimize the effects caused by differential pharmacokinetic properties of these compounds, the matrigel was prepared together with these peptides and the mixture was implanted into nude mice.
MATRIGEL was mixed with basic fibroblast growth factors at a final concentration of 300 μg/ml. Peptide fragments at selected doses were embedded with the MATRIGEL mixture and injected subcutaneously into mice. The animals were allowed to grow for 7 days. The plugs were then excised and the number of endothelial cells in the plug were examined histologically.

[2] = test system: human umbilical vein endothelial cell (HUVEC); experiment: bFGF-induced HUVEC migration; assay type: cell-based
From the text: (§1) The assay used in these experiments is described by Ji et al. in Biochem. Biophys. Res. Commun. 1998 247:414-419. […] In addition, the modified peptide fragment BMS-291242 (SEQ ID NO: 12) was an extremely potent inhibitor of bFGF-induced HUVEC migration.

[3] = test system: human umbilical vein endothelial cell (HUVEC); experiment: VEGF-induced HUVEC migration; assay type: cell-based; details: VEGF-induced/stimulated; read-out: inhibition of VEGF-induced HUVEC migration (potency class)
From the text: as §1

[4] = bFGF-induced, read-out: inhibition of bFGF-induced HUVEC migration (potency class)

Sequence	reduction of number of endothelial cells in matrigel plug / inhibition of bFGF-elicited in vivo angiogenesis [1]	IC50 [2, 4] [nM]	IC50 [3] [nM]	other results
VTGTPAQDWAAQEPHR [BMS-291102, Ac-VTGTPAQDWAAQEPHR-NH2]	effectively reduced the number of endothelial cells			IC50 (HUVEC; bFGF-elicited, read-out: inhibition of bFGF-elicited HUVEC proliferation (potency class)): < 10 nM
WAAQEPHRHSIFTPET [BMS-291209, Ac-WAAQEPHRHSIFTPET-NH2]		< 100	< 10	
AQDWAAQEPHRHSIFTPETNPRAGLEKNYA [BMS-291242]	significantly inhibited	< 10		anti-proliferative activity on endothelial cells (HUVEC; mitogenic stimulus not given): moderate anti-proliferative activity
NYARNPDGDVGGPWAYTTNPRKLYDYADVPQA [BMS-291245]	significantly inhibited			
TTNPRKLYDYADVPQA [BMS-291205, Ac-TTNPRKLYDYADVPQA-NH2]			< 100	IC50 ([2]; stimulus not given, presumably bFGF, read-out: IC50, marginal inhibitory activity (HUVEC migration)): 1000 nM
NYARNPDGDVGGPWAY [BMS-291203, Ac-NYARNPDGDVGGPWAY-NH2]	effectively reduced the number of endothelial cells			
